In brackets after ≈: the same amount, converted by molar mass.
Key:
Type in all cases: cell-based
[1] = test system: gram positive bacteria; experiment: MIC by broth microdilution (NCCLS), with or without 30% bovine serum (Table 42)
Procedure: (§1) Before dissolution, each sample was analyzed by HPLC and quantified.
(§2) The microorganisms used were reference strains obtained from the American Type Culture Collection (ATCC) (Rockville, Md.), SmithKline and French Laboratories (SKF), and the Upjohn Company (UC) (Kalamazoo, Mich.).
(§3) MICs were determined by the broth microdilution methodology following the standard NCCLS procedure (NCCLS Document M7-A6, Vol. 23, No. 2, “Methods for dilution antimicrobial susceptibility tests for bacteria that grow aerobically.” Approved Guideline. January 2003, which can be herein incorporated by reference in its entirety), with or without 30% adult bovine serum (BS) (PAA Laboratories GMBH, Haidmannweg Pasching Austria), using bacterial innocula at approximately 5×10^5 CFU/ml. The media employed included cation-adjusted Müller Hinton broth (Difco Laboratories, Detroit, Mich.) that was used that was adjusted with CaCl2 and MgCl2 to a final concentration of 20 mg/L and 10 mg/L, respectively. Tests were read following 20-24 hours of incubation at 35° C.

[2] = test system: gram-negative bacteria; experiment: MIC by broth microdilution (NCCLS) (Table 42)
Procedure: as §1, §2, §3

[3] = test system: Candida albicans SKF 2270; experiment: MIC by broth microdilution (NCCLS) (Tables 42, 44)
[4] = test system: panel of gram-positive bacteria; experiment: MIC by broth microdilution (NCCLS) of IsoB0 and reference compounds (Table 44)
Procedure: Müller Hinton broth (Difco Laboratories, Detroit, Mich., USA) adjusted with CaCl2 and MgCl2 to a final concentrations of 20 mg/L and 10 mg/L respectively.
The microorganisms used are reference standard strains from the American Type Culture Collection (ATCC, Rockville, USA), Smith Kline and French Laboratories (SKF) and the Upjohn Company (UC, Kalamazoo, Mich., USA).
(§4) MICs were determined by the broth microdilution methodology following the standard NCCLS procedure, with or without 30% bovine serum, using bacterial inocula of approximately 5×10^5 CFU/mL. Tests were read after 20-24 h incubation at 35° C.

[5] = test system: Escherichia coli, Proteus vulgaris, Pseudomonas aeruginosas; experiment: MIC by broth microdilution (NCCLS) of IsoB0 and reference compounds (Table 44), non-gram-positive bacterial strains
Procedure: as §4

[6] = E. faecalis ATCC29212 ref. strain
[7] = Enterococcus faecalis ATCC 7080
[8] = S. aureus ATCC 29213 ref. strain
[9] = Staphylococcus aureus Smith ATCC 19636
[10] = Streptococcus pyrogenes SKF 13400
[11] = Pseudomonas aeruginosas ATCC 10145
[12] = Candida albicans SKF 2270 (Table 42)
[13] = Streptococcus pyogenes SKF13400
[14] = Candida albicans SKF2270 (Table 44)

| Compound | MIC ([1]; Bacillus subtilis ATCC 6633) | MIC [1, 6] | MIC [1, 7] | MIC [1, 8] | MIC ([1]; S. aureus Smith + 30% BS) | MIC ([1]; S. epidermidis ATCC 12228) | MIC ([1]; S. pneumoniae Felton UC41) | MIC [1, 9] | MIC [1, 10] | MIC ([2]; E. coli ATCC25922 ref. strain) | MIC ([2]; Escherichia coli SKF 12140) | MIC ([2]; Proteus vulgaris ATCC 881) | MIC [2, 11] | MIC [3, 12] | other results |
| --- | --- | --- | --- | --- | --- | --- | --- | --- | --- | --- | --- | --- | --- | --- | --- |
| CN[C@H]1C(=O)N[C@@H]2Cc3ccc(cc3)Oc3cc4cc(c3O[C@@H]3O[C@H](C(=O)O)[C@@H](O)[C@H](O)[C@H]3NC(=O)CCCCCCCC(C)C)Oc3ccc(cc3Cl)[C@@H](O)[C@@H]3NC(=O)[C@H](NC(=O)[C@@H]4NC(=O)[C@@H](NC2=O)c2cc(cc(O)c2Cl)Oc2cc1ccc2O)c1ccc(O)c(c1)-c1c(O[C@H]2O[C@H](CO)[C@@H](O)[C@H](O)[C@@H]2O)cc(O)cc1[C@@H](C(=O)NCCCN(C)C)NC3=O [Composition A0] | ≦0.06 mg/L | ≦0.06 mg/L | 0.125 mg/L (≈ 0.0693 µM) | 0.125 mg/L (≈ 0.0693 µM) | 1 mg/L | 0.125 mg/L (≈ 0.0693 µM) | 0.125 mg/L (≈ 0.0693 µM) | 0.125 mg/L (≈ 0.0693 µM) | 0.015 mg/L (≈ 0.00832 µM) | >64 mg/L | >64 mg/L | >64 mg/L | >64 mg/L | >64 mg/L | – |
| CN[C@H]1C(=O)N[C@@H]2Cc3ccc(cc3)Oc3cc4cc(c3O[C@@H]3O[C@H](C(=O)O)[C@@H](O)[C@H](O)[C@H]3NC(=O)CCCCCCCCC(C)C)Oc3ccc(cc3Cl)[C@@H](O)[C@@H]3NC(=O)[C@H](NC(=O)[C@@H]4NC(=O)[C@H](NC2=O)c2cc(cc(O)c2Cl)Oc2cc1ccc2O)c1ccc(O)c(c1)-c1c(O[C@H]2O[C@H](CO)[C@@H](O)[C@H](O)[C@@H]2O)cc(O)cc1[C@@H](C(=O)NCCCN(C)C)NC3=O [isoB0] | – | – | – | – | – | – | – | – | – | – | – | – | – | – | activity against a panel of gram-positive bacteria [4]: very similar to dalbavancin; MIC ([4]; Bacillus subtilis ATCC 6633): ≦0.06 mg/L; MIC [4, 6]: 0.25 mg/L (≈ 0.138 µM); MIC [4, 7]: 0.25 mg/L (≈ 0.138 µM); MIC [4, 8]: 0.25 mg/L (≈ 0.138 µM); MIC ([4]; S. aureus Smith + 30% BS): 16 mg/L; MIC ([4]; S. epidermidis ATCC 12228): 0.125 mg/L (≈ 0.0688 µM); MIC ([4]; S. pneumoniae Felton UC41): 0.125 mg/L (≈ 0.0688 µM); MIC [4, 9]: 0.5 mg/L (≈ 0.275 µM); MIC [4, 13]: 0.06 mg/L (≈ 0.033 µM); MIC [3, 14]: >64 mg/L; MIC ([5]; E. coli ATCC25922 ref. strain): 64 mg/L (≈ 35.2 µM); MIC ([5]; Escherichia coli SKF 12140): 64 mg/L (≈ 35.2 µM); MIC ([5]; Proteus vulgaris ATCC 881): >64 mg/L; MIC [5, 11]: >64 mg/L |
| C[C@@H]1[C@H](O)[C@@H](C)/C=C/C=C/C=C/C=C/C=C/C=C/C=C/[C@H](O[C@@H]2O[C@H](C)[C@@H](O)[C@H](N)[C@@H]2O)C[C@@H]2O[C@](O)(C[C@@H](O)C[C@@H](O)[C@H](O)CC[C@@H](O)C[C@@H](O)CC(=O)O[C@H]1C)C[C@H](O)[C@H]2C(=O)O [Amph. B] | – | – | – | – | – | – | – | – | – | – | – | – | – | – | MIC ([4]; Bacillus subtilis ATCC 6633): >64 mg/L; MIC [4, 6]: >64 mg/L; MIC [4, 7]: >64 mg/L; MIC [4, 8]: >64 mg/L; MIC ([4]; S. aureus Smith + 30% BS): >64 mg/L; MIC ([4]; S. epidermidis ATCC 12228): >64 mg/L; MIC ([4]; S. pneumoniae Felton UC41): >64 mg/L; MIC [4, 9]: >64 mg/L; MIC [4, 13]: 32 mg/L (≈ 34.6 µM); MIC [3, 14]: 0.125 mg/L (≈ 0.135 µM); MIC ([5]; E. coli ATCC25922 ref. strain): >64 mg/L; MIC ([5]; Escherichia coli SKF 12140): >64 mg/L; MIC ([5]; Proteus vulgaris ATCC 881): >64 mg/L; MIC [5, 11]: >64 mg/L |
| CC(C)CCCCCCCCC(=O)N[C@H]1[C@H](Oc2c3cc4cc2Oc2ccc(cc2Cl)[C@@H](O)[C@@H]2NC(=O)[C@H](NC(=O)[C@@H]4NC(=O)[C@H]4NC(=O)[C@@H](Cc5ccc(cc5)O3)NC(=O)[C@H](N(C)C)c3ccc(O)c(c3)Oc3cc(O)c(Cl)c4c3)c3ccc(O)c(c3)-c3c(O[C@H]4O[C@H](CO)[C@@H](O)[C@H](O)[C@@H]4O)cc(O)cc3[C@@H](C(=O)NCCCN(C)C)NC2=O)O[C@H](C(=O)O)[C@@H](O)[C@@H]1O [Composition B2, N^15,N^15-dimethyl dalbavancin B0] | – | – | – | – | – | – | – | – | – | – | – | – | – | – | activity across the range of gram-positive bacteria [1]: comparable to or greater than the activity of B0; MIC range ([2]; representative panel of gram-negative bacteria): 16 to 32 mg/L |
| C[C@@H]1[C@H](O)[C@@H](C)/C=C/C=C/C=C/C=C/C=C/C=C/C=C/[C@H](O[C@@H]2O[C@H](C)[C@@H](O)[C@H](N)[C@@H]2O)C[C@@H]2O[C@](O)(C[C@@H](O)C[C@@H](O)[C@H](O)CC[C@@H](O)C[C@@H](O)CC(=O)O[C@H]1C)C[C@H](O)[C@H]2C(=O)O [Amphotericin B] | >64 mg/L | >64 mg/L | >64 mg/L | >64 mg/L | >64 mg/L | >64 mg/L | >64 mg/L | >64 mg/L | 32 mg/L (≈ 34.6 µM) | >64 mg/L | >64 mg/L | >64 mg/L | >64 mg/L | 0.125 mg/L (≈ 0.135 µM) | – |
| CCCCCCCCCCCC(=O)N[C@H]1[C@H](Oc2c3cc4cc2Oc2ccc(cc2Cl)[C@@H](O)[C@@H]2NC(=O)[C@H](NC(=O)[C@@H]4NC(=O)[C@H]4NC(=O)[C@@H](Cc5ccc(cc5)O3)NC(=O)[C@H](NC)c3ccc(O)c(c3)Oc3cc(O)c(Cl)c4c3)c3ccc(O)c(c3)-c3c(O[C@H]4O[C@H](CO)[C@@H](O)[C@H](O)[C@@H]4O)cc(O)cc3[C@@H](C(=O)NCCCN(C)C)NC2=O)O[C@H](C(=O)O)[C@@H](O)[C@@H]1O [Composition B1] | ≦0.06 mg/L | 0.125 mg/L (≈ 0.0688 µM) | 0.125 mg/L (≈ 0.0688 µM) | 0.125 mg/L (≈ 0.0688 µM) | 2 mg/L | ≦0.06 mg/L | ≦0.06 mg/L | 0.125 mg/L (≈ 0.0688 µM) | ≦0.06 mg/L | >64 mg/L | >64 mg/L | >64 mg/L | >64 mg/L | >64 mg/L | – |
| CN[C@H]1C(=O)N[C@@H]2Cc3ccc(cc3)Oc3cc4cc(c3O[C@@H]3O[C@H](C(=O)O)[C@@H](O)[C@H](O)[C@H]3NC(=O)CCCCCCCCC(C)C)Oc3ccc(cc3Cl)[C@@H](O)[C@@H]3NC(=O)[C@H](NC(=O)[C@@H]4NC(=O)[C@@H](NC2=O)c2cc(cc(O)c2Cl)Oc2cc1ccc2O)c1ccc(O)c(c1)-c1c(O[C@H]2O[C@H](CO)[C@@H](O)[C@H](O)[C@@H]2O)cc(O)cc1[C@@H](C(=O)NCCCN(C)C)NC3=O [Composition B0, ristomycin A aglycone, 5,31-dichloro-38-de(methoxycarbonyl)-7-demethyl-19-deoxy-56-O-(2-deoxy-2-((10-methyl-1-oxoundecyl)amino)-beta-D-glucopyranuronosyl)-38-(((3-(dimethylamino)propyl)amino)-carbonyl)-42-O-alpha-D-mannopyranosyl-N^15-methyl-] | ≦0.06 mg/L | 0.125 mg/L (≈ 0.0688 µM) | 0.125 mg/L (≈ 0.0688 µM) | 0.125 mg/L (≈ 0.0688 µM) | 2 mg/L | ≦0.06 mg/L | ≦0.06 mg/L | 0.25 mg/L (≈ 0.138 µM) | ≦0.06 mg/L | >64 mg/L | >64 mg/L | >64 mg/L | >64 mg/L | >64 mg/L | – |
| CC1(C)S[C@@H]2[C@H](NC(=O)Cc3ccccc3)C(=O)N2[C@H]1C(=O)O [Penicillin G] | ≦0.03 mg/L | 4 mg/L (≈ 12 µM) | 32 mg/L (≈ 95.7 µM) | 8 mg/L (≈ 23.9 µM) | 0.06 mg/L | >32 mg/L | ≦0.03 mg/L | 0.06 mg/L (≈ 0.179 µM) | ≦0.03 mg/L | >32 mg/L | >32 mg/L | >32 mg/L | >32 mg/L | >32 mg/L | – |

From patent US8143212B2 (Vicuron Pharmaceuticals Inc., priority 2002, dated 2012)
